Test: xn = mol fraction of the nth substance listed
Conditions: Liquid, Vibrating tube method

COC(=O)OC [dimethyl carbonate] + CCCCCC
mass density [kg/m3]
Conditions | 100 kPa | 5000 kPa | 10000 kPa | 20000 kPa | 30000 kPa | 40000 kPa
293.15 K, x1 = 0.1 | 684.2 | 689.7 | 694.6 | 703.9 | 712.2 | 719.8
293.15 K, x1 = 0.2 | 712 | 717.6 | 722.6 | 732 | 740.4 | 748.1
293.15 K, x1 = 0.3 | 742.7 | 748.3 | 753.3 | 762.8 | 771.3 | 779.2
293.15 K, x1 = 0.4 | 776.5 | 782.1 | 787.2 | 796.7 | 805.3 | 813.2
293.15 K, x1 = 0.5 | 813.8 | 819.4 | 824.5 | 834 | 842.6 | 850.6
293.15 K, x1 = 0.6 | 855 | 860.5 | 865.5 | 875 | 883.6 | 891.5
293.15 K, x1 = 0.7 | 900.5 | 905.9 | 910.9 | 920.2 | 928.7 | 936.6
293.15 K, x1 = 0.8 | 951.6 | 956.8 | 961.6 | 970.7 | 978.9 | 986.8
293.15 K, x1 = 0.9 | 1008.5 | 1013.4 | 1018 | 1026.7 | 1034.6 | 1042.3
293.15 K, x1 = 0.95 | 1038.4 | 1043.2 | 1047.6 | 1056.1 | 1063.9 | 1071.5
293.15 K, x1 = 1 | 1069.8 | 1074.4 | 1078.6 | 1086.9 | 1094.5 | 1101.9
298.15 K, x1 = 0.1 | 679.5 | 685.1 | 690.3 | 699.8 | 708.4 | 716
298.15 K, x1 = 0.2 | 707 | 712.8 | 718 | 727.7 | 736.4 | 744.2
298.15 K, x1 = 0.3 | 737.5 | 743.3 | 748.6 | 758.3 | 767.2 | 775.1
298.15 K, x1 = 0.4 | 771.1 | 776.9 | 782.2 | 792 | 800.9 | 808.9
298.15 K, x1 = 0.5 | 808.2 | 814 | 819.3 | 829.1 | 838 | 846.1
298.15 K, x1 = 0.6 | 849.2 | 854.9 | 860.2 | 869.9 | 878.8 | 886.9
298.15 K, x1 = 0.7 | 894.5 | 900.2 | 905.3 | 914.9 | 923.7 | 931.7
298.15 K, x1 = 0.8 | 945.4 | 950.8 | 955.8 | 965.1 | 973.7 | 981.6
298.15 K, x1 = 0.9 | 1002.1 | 1007.3 | 1012 | 1020.8 | 1029.1 | 1036.9
298.15 K, x1 = 0.95 | 1032 | 1036.9 | 1041.5 | 1050.2 | 1058.2 | 1065.9
298.15 K, x1 = 1 | 1063.2 | 1068 | 1072.4 | 1080.8 | 1088.7 | 1096.2
303.15 K, x1 = 0.1 | 674.6 | 680.3 | 685.7 | 695.6 | 704.3 | 712.2
303.15 K, x1 = 0.2 | 701.9 | 707.7 | 713.3 | 723.3 | 732.2 | 740.2
303.15 K, x1 = 0.3 | 732.2 | 738 | 743.6 | 753.7 | 762.7 | 770.9
303.15 K, x1 = 0.4 | 765.6 | 771.5 | 777.1 | 787.2 | 796.3 | 804.6
303.15 K, x1 = 0.5 | 802.5 | 808.3 | 813.9 | 824.1 | 833.3 | 841.6
303.15 K, x1 = 0.6 | 843.3 | 849.5 | 855 | 865 | 874.1 | 882.3
303.15 K, x1 = 0.7 | 888.5 | 894.5 | 899.9 | 909.8 | 918.7 | 926.9
303.15 K, x1 = 0.8 | 939.1 | 944.8 | 950 | 959.7 | 968.5 | 976.5
303.15 K, x1 = 0.9 | 995.7 | 1000.9 | 1005.9 | 1015.1 | 1023.6 | 1031.4
303.15 K, x1 = 0.95 | 1025.4 | 1030.4 | 1035.2 | 1044.2 | 1052.6 | 1060.2
303.15 K, x1 = 1 | 1056.5 | 1061.3 | 1066 | 1074.7 | 1082.9 | 1090.4
308.15 K, x1 = 0.1 | 669.8 | 675.7 | 681.4 | 691.5 | 700.6 | 708.6
308.15 K, x1 = 0.2 | 696.9 | 703 | 708.7 | 719 | 728.3 | 736.4
308.15 K, x1 = 0.3 | 727 | 733.1 | 738.8 | 749.3 | 758.7 | 766.9
308.15 K, x1 = 0.4 | 760.2 | 766.3 | 772 | 782.6 | 792.1 | 800.4
308.15 K, x1 = 0.5 | 796.9 | 802.9 | 808.7 | 819.2 | 828.8 | 837.2
308.15 K, x1 = 0.6 | 837.4 | 843.8 | 849.5 | 859.9 | 869.4 | 877.7
308.15 K, x1 = 0.7 | 882.5 | 888.6 | 894.2 | 904.4 | 913.8 | 922.1
308.15 K, x1 = 0.8 | 932.8 | 938.7 | 944.1 | 954.1 | 963.2 | 971.5
308.15 K, x1 = 0.9 | 989.2 | 994.6 | 999.7 | 1009.3 | 1018.1 | 1026.1
308.15 K, x1 = 0.95 | 1018.8 | 1023.8 | 1028.8 | 1038.1 | 1046.8 | 1054.7
308.15 K, x1 = 1 | 1049.8 | 1054.6 | 1059.4 | 1068.5 | 1077 | 1084.8
313.15 K, x1 = 0.1 | 664.8 | 671.1 | 677 | 687.5 | 696.7 | 705
313.15 K, x1 = 0.2 | 691.7 | 698 | 704.1 | 714.7 | 724.2 | 732.6
313.15 K, x1 = 0.3 | 721.5 | 727.8 | 733.9 | 744.7 | 754.3 | 762.9
313.15 K, x1 = 0.4 | 754.5 | 760.9 | 767 | 777.9 | 787.5 | 796.3
313.15 K, x1 = 0.5 | 791 | 797.4 | 803.4 | 814.3 | 824 | 832.8
313.15 K, x1 = 0.6 | 831.4 | 837.6 | 843.7 | 854.5 | 864.1 | 872.9
313.15 K, x1 = 0.7 | 876.3 | 882.4 | 888.3 | 898.9 | 908.5 | 917.2
313.15 K, x1 = 0.8 | 926.4 | 932.2 | 937.9 | 948.2 | 957.6 | 966.1
313.15 K, x1 = 0.9 | 982.5 | 988 | 993.4 | 1003.2 | 1012.2 | 1020.6
313.15 K, x1 = 0.95 | 1012.1 | 1017.4 | 1022.5 | 1032.1 | 1041 | 1049.1
313.15 K, x1 = 1 | 1043 | 1048.1 | 1053 | 1062.3 | 1071 | 1079

Source: the NIST ThermoML archive (doi:10.1016/j.jct.2010.06.011)
